Reference: patent US8389562B2, “Polymorphic forms of a 3-pyrrole substituted 2-indolinone” (Medichem, S.A., priority 2007, dated 2013)

Experiments:
[1] = solubility profile of sunitinib base as observed by applicants; type: physicochemical; conditions: sunitinib base obtained in the prior art (Form III); qualitative observation
Source text: In this regard, the low solubility of sunitinib base Form III would involve the use of large amounts of suitable solvents or mixture of solvents and/or the use of particular conditions aimed to improve the solubility of sunitinib base Form III and/or long reaction times for processes using sunitinib, which may represent an important drawback, especially for processes on an industrial scale.

[2] = European Public Assessment Report provided for SUTENT; cited from earlier work

| solubility profile [1] | SMILES | solubility class according to the biopharmaceutical classification [2] |
| --- | --- | --- |
| low solubility profile | CCN(CC)CCNC(=O)c1c(C)[nH]c(/C=C2\C(=O)Nc3ccc(F)cc32)c1C [sunitinib base Form III, N-[2-(diethylamino)ethyl]-5-[(Z)-(5-fluoro-1,2-dihydro-2-oxo-3H-indol-3-ylidine)methyl]-2,4-dimethyl-1H-pyrrole-3-carboxamide] | – |
| – | CCN(CC)CCNC(=O)c1c(C)[nH]c(/C=C2\C(=O)Nc3ccc(F)cc32)c1C [sunitinib, N-[2-(diethylamino)ethyl]-5-[(Z)-(5-fluoro-1,2-dihydro-2-oxo-3H-indol-3-ylidine)methyl]-2,4-dimethyl-1H-pyrrole-3-carboxamide] | low solubility compound |
